Assay results taken from PMC2932999 (Journal of Medicinal Chemistry, 2010).

Experiments:
[1] = test system: wild type D197 NAs (B/Perth and B/Gifu); type: biochemical, influenza B virus
[2] = in vivo; cited from earlier work
[3] = target: recombinant B/Perth/211/2001 wild type D197 neuraminidase heads (influenza B virus B/Perth/211/2001); assay: negative-stain electron microscopy
[4] = target: D197 Perth NA (B/Perth/211/2001 wild type neuraminidase) (Influenza B virus, UniProt Q3S340); type: biochemical; details: read-out: Km for MUNANA
[5] = target: D197 Gifu NA (B/Gifu/11/2005 wild type neuraminidase) (Influenza B virus, UniProt Q38G88); type: biochemical; details: read-out: Km for MUNANA

| Compound | association of inhibitor with NA [1] | dissociation of inhibitor from NA [1] | other results |
| --- | --- | --- | --- |
| CCC(CC)[C@H](NC(C)=O)[C@@H]1[C@H](O)[C@@H](C(=O)O)C[C@H]1NC(=N)N [compound 3, peramivir] | slow association | slow dissociation |  |
| CC(=O)N[C@H]1[C@H]([C@H](O)[C@H](O)CO)OC(C(=O)O)=C[C@@H]1NC(=N)N [compound 1, zanamivir] | slow association | slow dissociation | levels delivered to the upper respiratory tract [2]: up to 10 000 nmol/L |
| recombinant B/Perth/211/2001 wild type D197 neuraminidase heads (enzyme) |  |  | stoichiometry N [3]: 4 |
| CC(=O)N[C@H]1[C@H]([C@H](O)[C@H](O)CO)OC(Oc2ccc3c(C)cc(=O)oc3c2)(C(=O)O)C[C@@H]1O (some centres unmarked) [MUNANA, 4-methylumbelliferyl-N-acetylneuraminic acid] |  |  | Km [4]: 12.4 ± 4.2 µM; Km [5]: 10.5 ± 1.4 µM |
